Test results taken from US10556098B2, “Microneedle array coated with drug composition” (TEIJIN LIMITED, priority 2012, dated 2020).

Legend:
in vivo = test: in vivo; set-up: species or system SD rat; conditions: rat
Experimental: The hair of the nine-week old male SD rat's abdomen was removed with a hair clipper and a shaver. […] Also, the microneedle array after the administration was immersed in 75% methanol, and the amount of the collected drug was measured with a HPLC.

[1] = set-up: species or system SD rat; conditions: rat, in vivo
Experimental: Additive: 0.5 w/w sodium carboxymethylcellulose ([…] % hydroxypropylcellulose 1000-5000 mPa·s […] Water: 97.75 w/w % The coater shown in FIG. 5 (the volume of a drug aqueous solution: 4 ml) was used. […] After coating said microneedle array with the solution, the microneedle array was dried at room temperature (20-25° C.) for 60 seconds. The hair of the nine-week old male SD rat's abdomen was removed with a hair clipper and a shaver. The microneedle array of FIG. 7 was pressed onto the rat's skin with a finger, and fixed with tape. After one hour, the microneedle array was removed. In order to evaluate the amount of residual desmopressin acetate (the amount remained on the skin surface and the amount attached to the microneedle array), desmopressin acetate was collected as follows. The skin surface was wiped with Kimwipes® impregnated with ethanol, and the amount of the drug collected from the skin was investigated by measuring the drug in the Kimwipes® with a HPLC. The collected microneedle array was immersed in 75% methanol, and the amount of the collected drug was measured with a HPLC.

AUC (in vivo; male, SD, 4.88 ug): 14.3 ng·h/mL
Skin absorption amount (in vivo): >4.83
Transfer into the blood (change in blood levels, FIG. 8) (in vivo): rapidly transferred in the blood
Amount remained on microneedle array (in vivo; 0.5 h): <0.025
Amount remained on skin surface (in vivo; 0.5 h): <0.025
Needles after 1 hour adhesion C (residual drug on microneedle array) [1]: <0.025 µg
Skin after 1 hour adhesion D (residual drug on skin surface) [1]: <0.025 µg
SMILES: NC(=O)CC[C@@H]1NC(=O)[C@H](Cc2ccccc2)NC(=O)[C@H](Cc2ccc(O)cc2)NC(=O)CCSSC[C@@H](C(=O)N2CCC[C@H]2C(=O)N[C@H](CCCN=C(N)N)C(=O)NCC(N)=O)NC(=O)[C@H](CC(N)=O)NC1=O [desmopressin acetate]
